Experimental findings from ChEMBL document CHEMBL5465560, “Selectivity Literature for EUbOPEN Chemogenomic Library” (2024) are described below.

The target of test [1] is T1, Mitogen-activated protein kinase kinase kinase 5 (Homo sapiens) (UniProt Q99683).
T1 sequence (whole entry): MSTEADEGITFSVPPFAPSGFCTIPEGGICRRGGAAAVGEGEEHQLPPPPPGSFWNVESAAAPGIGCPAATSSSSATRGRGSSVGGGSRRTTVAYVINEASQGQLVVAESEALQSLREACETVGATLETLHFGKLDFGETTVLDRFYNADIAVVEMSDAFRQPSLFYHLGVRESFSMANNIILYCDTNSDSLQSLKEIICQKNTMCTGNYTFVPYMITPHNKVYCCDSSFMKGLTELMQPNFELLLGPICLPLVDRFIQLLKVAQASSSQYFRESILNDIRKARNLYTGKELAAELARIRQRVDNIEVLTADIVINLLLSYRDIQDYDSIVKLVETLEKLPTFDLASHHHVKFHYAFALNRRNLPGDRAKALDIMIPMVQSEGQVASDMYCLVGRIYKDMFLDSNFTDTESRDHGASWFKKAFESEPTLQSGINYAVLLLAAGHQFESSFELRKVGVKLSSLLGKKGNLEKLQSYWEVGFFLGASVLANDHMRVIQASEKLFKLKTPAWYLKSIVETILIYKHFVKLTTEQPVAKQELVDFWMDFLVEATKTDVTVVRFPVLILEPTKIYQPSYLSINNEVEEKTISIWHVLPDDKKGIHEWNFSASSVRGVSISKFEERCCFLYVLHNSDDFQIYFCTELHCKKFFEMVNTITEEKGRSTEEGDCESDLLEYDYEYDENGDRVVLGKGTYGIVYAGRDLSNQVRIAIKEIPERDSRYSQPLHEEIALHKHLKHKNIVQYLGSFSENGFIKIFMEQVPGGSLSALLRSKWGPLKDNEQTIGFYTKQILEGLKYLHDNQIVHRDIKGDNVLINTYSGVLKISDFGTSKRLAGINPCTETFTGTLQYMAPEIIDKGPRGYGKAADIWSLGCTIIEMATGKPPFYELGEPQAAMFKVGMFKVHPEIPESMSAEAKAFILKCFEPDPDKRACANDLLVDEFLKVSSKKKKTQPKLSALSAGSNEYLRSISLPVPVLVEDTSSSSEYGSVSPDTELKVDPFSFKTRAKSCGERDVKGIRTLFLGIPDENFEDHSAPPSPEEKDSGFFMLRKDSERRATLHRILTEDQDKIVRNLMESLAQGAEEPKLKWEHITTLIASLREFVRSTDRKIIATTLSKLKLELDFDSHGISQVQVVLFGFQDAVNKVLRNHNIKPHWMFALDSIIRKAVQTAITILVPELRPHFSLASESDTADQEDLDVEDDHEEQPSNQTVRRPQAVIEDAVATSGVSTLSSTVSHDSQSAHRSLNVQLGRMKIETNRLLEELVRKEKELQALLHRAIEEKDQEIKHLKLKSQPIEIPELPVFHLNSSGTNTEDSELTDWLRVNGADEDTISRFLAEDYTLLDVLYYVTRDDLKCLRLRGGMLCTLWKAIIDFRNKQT
Kind of test: Selectivity interaction (Kinase panel (DSF assay)) EUB0001558a MAP3K5.

Test [2] deals with Mitogen-activated protein kinase kinase kinase 4 (Homo sapiens) (UniProt Q9Y6R4). Kind of test: Selectivity interaction (ActivX KiNativ screen (kinase selectivity in THP-1 cell lysates)) EUB0000639a MAP3K4. Type of test: subcellular. The note with it: lysate.
Sequence of Mitogen-activated protein kinase kinase kinase 4 (Homo sapiens) (Q9Y6R4 whole entry): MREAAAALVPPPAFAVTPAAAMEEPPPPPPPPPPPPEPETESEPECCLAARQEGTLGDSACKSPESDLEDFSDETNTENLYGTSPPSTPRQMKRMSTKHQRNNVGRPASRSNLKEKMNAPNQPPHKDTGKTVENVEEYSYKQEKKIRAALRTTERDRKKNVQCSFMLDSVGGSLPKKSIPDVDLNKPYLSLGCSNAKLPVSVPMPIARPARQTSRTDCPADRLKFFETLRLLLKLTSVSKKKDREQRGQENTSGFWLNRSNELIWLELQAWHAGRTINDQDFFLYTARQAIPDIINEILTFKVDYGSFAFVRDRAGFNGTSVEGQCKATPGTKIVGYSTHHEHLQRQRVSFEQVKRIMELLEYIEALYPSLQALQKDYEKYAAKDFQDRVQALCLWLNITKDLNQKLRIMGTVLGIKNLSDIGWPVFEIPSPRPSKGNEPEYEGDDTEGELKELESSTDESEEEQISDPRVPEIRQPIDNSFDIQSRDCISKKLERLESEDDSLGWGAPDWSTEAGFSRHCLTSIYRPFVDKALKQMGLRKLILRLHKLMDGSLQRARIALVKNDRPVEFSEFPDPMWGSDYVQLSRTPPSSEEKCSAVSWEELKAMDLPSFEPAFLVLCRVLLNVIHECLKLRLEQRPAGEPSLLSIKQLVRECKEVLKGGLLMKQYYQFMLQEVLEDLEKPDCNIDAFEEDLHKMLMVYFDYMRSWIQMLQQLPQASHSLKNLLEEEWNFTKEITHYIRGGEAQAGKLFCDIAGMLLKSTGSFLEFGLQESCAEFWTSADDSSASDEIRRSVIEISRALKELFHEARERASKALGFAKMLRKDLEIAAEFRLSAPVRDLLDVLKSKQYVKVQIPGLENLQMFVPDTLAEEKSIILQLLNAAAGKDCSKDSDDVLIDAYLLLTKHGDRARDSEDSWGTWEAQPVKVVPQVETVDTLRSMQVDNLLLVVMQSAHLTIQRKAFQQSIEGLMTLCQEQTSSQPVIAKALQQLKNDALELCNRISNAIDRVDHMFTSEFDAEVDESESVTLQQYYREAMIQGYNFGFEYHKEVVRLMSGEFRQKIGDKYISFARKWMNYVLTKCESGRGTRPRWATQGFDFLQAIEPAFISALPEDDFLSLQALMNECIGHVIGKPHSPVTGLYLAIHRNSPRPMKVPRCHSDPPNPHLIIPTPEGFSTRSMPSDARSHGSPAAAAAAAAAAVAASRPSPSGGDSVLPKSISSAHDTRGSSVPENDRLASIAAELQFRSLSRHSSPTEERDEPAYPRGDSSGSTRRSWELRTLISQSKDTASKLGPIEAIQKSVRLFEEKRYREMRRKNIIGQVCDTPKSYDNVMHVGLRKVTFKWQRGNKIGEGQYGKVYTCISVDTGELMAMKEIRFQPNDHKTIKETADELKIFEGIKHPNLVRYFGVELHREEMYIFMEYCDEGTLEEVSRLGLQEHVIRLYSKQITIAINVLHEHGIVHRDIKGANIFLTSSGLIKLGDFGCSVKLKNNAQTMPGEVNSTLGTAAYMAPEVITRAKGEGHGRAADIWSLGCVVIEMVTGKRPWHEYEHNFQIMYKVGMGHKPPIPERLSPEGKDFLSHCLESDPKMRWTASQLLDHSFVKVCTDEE
A short description of test [3]: Selectivity interaction (Inhibition of ex vivo anti-IgM/IL-4 -induced proximal pAKT formation in rats) EUB0000877a PIK3CD.
The target in test [4] is T2, Megakaryocyte-associated tyrosine-protein kinase (Homo sapiens) (UniProt P42679).
T2 sequence (whole entry): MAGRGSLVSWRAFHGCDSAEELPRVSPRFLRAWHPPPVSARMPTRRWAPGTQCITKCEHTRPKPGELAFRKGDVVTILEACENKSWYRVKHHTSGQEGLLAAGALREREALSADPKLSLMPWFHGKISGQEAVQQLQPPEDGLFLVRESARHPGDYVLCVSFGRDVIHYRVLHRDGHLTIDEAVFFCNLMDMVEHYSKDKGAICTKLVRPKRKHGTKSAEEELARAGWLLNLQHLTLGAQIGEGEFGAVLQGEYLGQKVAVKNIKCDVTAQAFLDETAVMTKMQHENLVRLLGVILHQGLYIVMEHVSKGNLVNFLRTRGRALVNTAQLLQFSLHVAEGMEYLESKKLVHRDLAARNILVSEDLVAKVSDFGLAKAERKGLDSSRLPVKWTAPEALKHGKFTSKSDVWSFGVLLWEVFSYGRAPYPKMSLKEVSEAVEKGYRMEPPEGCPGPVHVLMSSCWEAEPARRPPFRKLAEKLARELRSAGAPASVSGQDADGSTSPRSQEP
Put plainly: Selectivity interaction (KinomeScan (DiscoverX)) EUB0000618a MATK. The note with it: at 10 µM.

In turn, `CC(C)(O)[C@H](F)CN1Cc2cc(NC(=O)c3cnn4cccnc34)c(N3CCOCC3)cc2C1=O` yielded a dTM in test [1] of 0.5 K.

For the compound `CC[C@@H]1[C@H](F)C(=O)N[C@@H]1COc1nccc2cc(C(N)=O)c(OC)cc12` [ZIMLOVISERTIB], the % of inhibition in test [2] (at 0.01 µM) is 18.5%; in test [2] (at 0.04 µM), -5.7%; in test [2] (at 0.2 µM) it was -1.4%; in test [2] (at 1 µM) it was -23%; in test [2] (at 5 µM), 6.4%.

In test [3], `CCC(=O)N1CC[C@H](Nc2ncnc3c2CN(c2cnc(OC)c(C(F)(F)F)c2)CC3)C1` [LENIOLISIB] showed an EC50 of 83 nM.

Take `O[C@H]1CC[C@H](Nc2ncc3nc(Nc4c(F)cc(F)cc4F)n([C@H]4CCOC4)c3n2)CC1`: the % of control in test [4] worked out at 95%.
